Measurements: patent publication US8030500B2, “Substituted isoindoles for the treatment and/or prevention of Aβ- related pathologies” (AstraZeneca AB, priority 2008, dated 2011)
pIC50: −log10 of the molar value. Where a name gives a salt, the structure may show the parent alone.

biological target: T1, human β-Secretase (Homo sapiens, UniProt P56817); test: TR-FRET assay (β-secretase enzyme, sBACE-Fc); assay type: biochemical; settings: soluble human β-secretase (sBACE-Fc), substrate (Europium)[…](Qsy7) 100 nM, pH4.5; read-out: IC50 in TR-FRET assay
T1 construct: soluble part of the human β-Secretase (AA 1-AA 460); Fc domain of IgG1; made in house
T1 sequence (P56817 22-460): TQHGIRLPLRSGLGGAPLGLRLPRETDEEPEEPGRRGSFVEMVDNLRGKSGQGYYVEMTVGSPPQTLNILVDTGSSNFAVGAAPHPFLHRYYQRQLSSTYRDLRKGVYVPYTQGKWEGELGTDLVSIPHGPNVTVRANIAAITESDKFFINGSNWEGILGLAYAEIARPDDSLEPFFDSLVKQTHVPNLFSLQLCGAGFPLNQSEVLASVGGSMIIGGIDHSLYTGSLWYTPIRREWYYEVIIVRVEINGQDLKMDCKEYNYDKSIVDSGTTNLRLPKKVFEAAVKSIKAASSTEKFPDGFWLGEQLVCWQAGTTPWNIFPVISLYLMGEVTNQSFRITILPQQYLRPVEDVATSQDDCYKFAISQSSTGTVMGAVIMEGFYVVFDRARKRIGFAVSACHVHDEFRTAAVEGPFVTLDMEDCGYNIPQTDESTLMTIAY
Procedure: The β-secretase enzyme used in the TR-FRET is prepared as follows:
The cDNA for the soluble part of the human β-Secretase (AA 1-AA 460) was cloned using the ASP2-Fc10-1-IRES-GFP-neoK mammalian expression vector. The gene was fused to the Fc domain of IgG1 (affinity tag) and stably cloned into HEK 293 cells.
The robotic systems Biomek FX and Velocity 11 were used for all liquid handling and the enzyme and substrate solutions were kept on ice until they were placed in the robotic system. Enzyme (9 μl) was added to the plate then 1 μl of compound in dimethylsulphoxide was added, mixed and pre-incubated for 10 minutes. Substrate (10 μl) was then added, mixed and the reaction proceeded for 15 minutes at room temperature. The reaction was stopped with the addition of Stop solution (7 μl, NaAcetate, pH 9). […] The dimethylsulphoxide control, instead of test compound, defined the 100% activity level and 0% activity was defined by wells lacking enzyme (replaced with reaction buffer).

Structure (SMILES) | pIC50
NC1=NC(c2ccncc2)(c2cccc(-c3cccc(Cl)c3)c2)c2cccc(F)c21 (stereo not shown) [Example 9, 1-(3′-Chlorobiphenyl-3-yl)-4-fluoro-1-(pyridin-4-yl)-1H-isoindol-3-amine] | 7.12
NC1=NC(c2ccncc2)(c2cccc(-c3cncnc3)c2)c2cccc(F)c21 (stereo not shown) [Example 10, 4-Fluoro-1-(pyridin-4-yl)-1-(3-(pyrimidin-5-yl)phenyl)-1H-isoindol-3-amine] | 6.80
COc1cccc(-c2cccc(C3(c4ccncc4)N=C(N)c4c(F)cccc43)c2)c1F (stereo not shown) [Example 14, 4-Fluoro-1-(2′-fluoro-3′-methoxybiphenyl-3-yl)-1-(pyridin-4-yl)-1H-isoindol-3-amine] | 7.02
NC1=NC(c2ccncc2)(c2cccc(-c3cncc(F)c3)c2)c2cccc(F)c21 (stereo not shown) [Example 15, 4-Fluoro-1-(3-(5-fluoropyridin-3-yl)phenyl)-1-(pyridin-4-yl)-1H-isoindol-3-amine] | 6.85
NC1=NC(c2ccncc2)(c2ccc(F)c(-c3cncnc3)c2)c2cccc(F)c21 (stereo not shown) [Example 16, 4-Fluoro-1-(4-fluoro-3-(pyrimidin-5-yl)phenyl)-1-(pyridin-4-yl)-1H-isoindol-3-amine] | 6.49
COc1ccc(C2(c3cccc(-c4cncnc4)c3)N=C(N)c3c(F)cccc32)cc1 (stereo not shown) [Example 17, 4-Fluoro-1-(4-methoxyphenyl)-1-(3-(pyrimidin-5-yl)phenyl)-1H-isoindol-3-amine] | 6.96
COc1cccc(-c2cc(C3(c4cncnc4)N=C(N)c4c(F)cccc43)ccc2F)c1F (stereo not shown) [Example 18, 1-(2′,6-Difluoro-3′-methoxybiphenyl-3-yl)-4-fluoro-1-(pyrimidin-5-yl)-1H-isoindol-3-amine] | 5.47
COc1ccnc(-c2cc(C3(c4cncnc4)N=C(N)c4c(F)cccc43)ccc2F)c1 (stereo not shown) [Example 19, 4-Fluoro-1-(4-fluoro-3-(4-methoxypyridin-2-yl)phenyl)-1-(pyrimidin-5-yl)-1H-isoindol-3-amine] | 5.39
NC1=NC(c2cccc(-c3cncnc3)c2)(c2ccnc(C(F)(F)F)c2)c2cccc(F)c21 (stereo not shown) [Example 20, 4-Fluoro-1-(3-(pyrimidin-5-yl)phenyl)-1-(2-(trifluoromethyl)pyridin-4-yl)-1H-isoindol-3-amine] | 6.62
Cc1cc(C2(c3cccc(-c4cncnc4)c3)N=C(N)c3c(F)cccc32)cc(C)n1 (stereo not shown) [Example 21, 1-(2,6-Dimethylpyridin-4-yl)-4-fluoro-1-(3-(pyrimidin-5-yl)phenyl)-1H-isoindol-3-amine] | 5.96
COc1cc(C2(c3ccc(F)c(-c4cncnc4)c3)N=C(N)c3c(F)cccc32)ccn1 (stereo not shown) [Example 24, 4-Fluoro-1-(4-fluoro-3-(pyrimidin-5-yl)phenyl)-1-(2-methoxypyridin-4-yl)-1H-isoindol-3-amine] | 6.55
COc1cc(C2(c3cccc(-c4cncnc4)c3)N=C(N)c3c(F)cccc32)ccn1 (stereo not shown) [Example 27, 4-Fluoro-1-(2-methoxypyridin-4-yl)-1-(3-(pyrimidin-5-yl)phenyl)-1H-isoindol-3-amine] | 6.40
COc1cc(C2(c3cccc(-c4cnccn4)c3)N=C(N)c3c(F)cccc32)ccn1 (stereo not shown) [Example 29, 4-Fluoro-1-(2-methoxypyridin-4-yl)-1-(3-(pyrazin-2-yl)phenyl)-1H-isoindol-3-amine acetate] | 6.70
NC1=NC(c2cccc(-c3cnccn3)c2)(c2ccnc(C(F)(F)F)c2)c2cccc(F)c21 (stereo not shown) [Example 30, 4-Fluoro-1-(3-(pyrazin-2-yl)phenyl)-1-(2-(trifluoromethyl)pyridin-4-yl)-1H-isoindol-3-amine] | 6.49
Cc1cc(C2(c3cccc(-c4cncnc4)c3)N=C(N)c3c(F)cccc32)cc(C(F)F)n1 (stereo not shown) [Example 32, 1-(2-(Difluoromethyl)-6-methylpyridin-4-yl)-4-fluoro-1-(3-(pyrimidin-5-yl)phenyl)-1H-isoindol-3-amine] | 7.05
Cc1cc(C2(c3ccnc(-c4cncnc4)c3)N=C(N)c3c(F)cccc32)cc(C(F)F)n1 (stereo not shown) [Example 33, 1-(2-(Difluoromethyl)-6-methylpyridin-4-yl)-4-fluoro-1-(2-(pyrimidin-5-yl)pyridin-4-yl)-1H-isoindol-3-amine] | 6.14
COc1c(C)cc(C2(c3ccnc(-c4cncnc4)c3)N=C(N)c3c(F)cccc32)cc1F (stereo not shown) [Example 34, 4-Fluoro-1-(3-fluoro-4-methoxy-5-methylphenyl)-1-(2-(pyrimidin-5-yl)pyridin-4-yl)-1H-isoindol-3-amine] | 7.09
COc1c(C)cc(C2(c3ccnc(-c4cncnc4)c3)N=C(N)c3c(F)cccc32)cc1C (stereo not shown) [Example 35, 4-Fluoro-1-(4-methoxy-3,5-dimethylphenyl)-1-(2-(pyrimidin-5-yl)pyridin-4-yl)-1H-isoindol-3-amine] | 7.46
COc1c(C)cc(C2(c3ccnc(-c4cncnc4)c3)N=C(N)c3c(F)cccc32)nc1C (stereo not shown) [Example 36, 4-Fluoro-1-(5-methoxy-4,6-dimethylpyridin-2-yl)-1-(2-(pyrimidin-5-yl)pyridin-4-yl)-1H-isoindol-3-amine] | 6.31
NC1=NC(c2cccc(-c3cnccn3)c2)(c2ccnc(C3CC3)c2)c2cccc(F)c21 (stereo not shown) [Example 37, 1-(2-Cyclopropylpyridin-4-yl)-4-fluoro-1-(3-(pyrazin-2-yl)phenyl)-1H-isoindol-3-amine trifluoroacetate] | 7.06
COc1ccnc(-c2cccc(C3(c4ccnc(OC)c4)N=C(N)c4c(F)cccc43)c2)c1 (stereo not shown) [Example 38, 4-Fluoro-1-(3-(4-methoxypyridin-2-yl)phenyl)-1-(2-methoxypyridin-4-yl)-1H-isoindol-3-amine] | 6.37

Second part, the compound after the results:

pIC50 | Structure (SMILES)
5.80 | Cc1cc(C2(c3cc(-c4cncnc4)ccc3F)N=C(N)c3c(F)cccc32)ccn1 (stereo not shown) [Example 1, 4-Fluoro-1-(2-fluoro-5-(pyrimidin-5-yl)phenyl)-1-(2-methylpyridin-4-yl)-1H-isoindol-3-amine]
5.74 | Cc1cc(C2(c3cc(-c4cncc(C#N)c4)ccc3F)N=C(N)c3c(F)cccc32)ccn1 (stereo not shown) [Example 3, 5-(3-(3-Amino-4-fluoro-1-(2-methylpyridin-4-yl)-1H-isoindol-1-yl)-4-fluorophenyl)nicotinonitrile]
5.80 | Cc1cc(C2(c3cc(-c4cncc(F)c4)ccc3F)N=C(N)c3c(F)cccc32)ccn1 (stereo not shown) [Example 4, 4-Fluoro-1-(2-fluoro-5-(5-fluoropyridin-3-yl)phenyl)-1-(2-methylpyridin-4-yl)-1H-isoindol-3-amine]
5.77 | Cc1cc(C2(c3cc(-c4cccnc4)ccc3F)N=C(N)c3c(F)cccc32)ccn1 (stereo not shown) [Example 5, 4-Fluoro-1-(2-fluoro-5-(pyridin-3-yl)phenyl)-1-(2-methylpyridin-4-yl)-1H-isoindol-3-amine]
5.96 | NC1=NC(c2ccnc(C(F)(F)F)c2)(c2cc(-c3cncnc3)ccc2F)c2cccc(F)c21 (stereo not shown) [Example 6, 4-Fluoro-1-(2-fluoro-5-(pyrimidin-5-yl)phenyl)-1-(2-(trifluoromethyl)pyridin-4-yl)-1H-isoindol-3-amine]
5.70 | N#Cc1cncc(-c2ccc(F)c(C3(c4ccnc(C(F)(F)F)c4)N=C(N)c4c(F)cccc43)c2)c1 (stereo not shown) [Example 7, 5-(3-(3-Amino-4-fluoro-1-(2-(trifluoromethyl)pyridin-4-yl)-1H-isoindol-1-yl)-4-fluorophenyl)nicotinonitrile]
4.92 | CS(=O)(=O)c1cncc(-c2ccc(F)c(C3(c4ccnc(C(F)(F)F)c4)N=C(N)c4c(F)cccc43)c2)c1 (stereo not shown) [Example 8, 4-Fluoro-1-(2-fluoro-5-(5-(methylsulfonyl)pyridin-3-yl)phenyl)-1-(2-(trifluoromethyl)pyridin-4-yl)-1H-isoindol-3-amine]
6.06 | Cc1cc(C2(c3cccc(-c4cncc(C#N)c4)c3)N=C(N)c3c(F)cccc32)cc(C)n1 (stereo not shown) [Example 22, 5-(3-(3-Amino-1-(2,6-dimethylpyridin-4-yl)-4-fluoro-1H-isoindol-1 yl)phenyl)nicotinonitrile]
6.60 | N#Cc1cncc(-c2cccc(C3(c4ccnc(C(F)(F)F)c4)N=C(N)c4c(F)cccc43)c2)c1 (stereo not shown) [Example 23, 5-(3-(3-Amino-4-fluoro-1-(2-(trifluoromethyl)pyridin-4-yl)-1H-isoindol-1-yl)phenyl)nicotinonitrile]
6.43 | N#Cc1cncc(-c2cc(C3(c4ccnc(C(F)(F)F)c4)N=C(N)c4c(F)cccc43)ccc2F)c1 (stereo not shown) [Example 25, 5-(5-(3-Amino-4-fluoro-1-(2-(trifluoromethyl)pyridin-4-yl)-1H-isoindol-1-yl)-2-fluorophenyl) nicotinonitrile trifluoroacetate]
6.34 | N#Cc1cncc(-c2cc(C3(c4ccncc4)N=C(N)c4c(F)cccc43)ccc2F)c1 (stereo not shown) [Example 26, 5-(5-(3-Amino-4-fluoro-1-(pyridin-4-yl)-1H-isoindol-1-yl)-2-fluorophenyl) nicotinonitrile]
6.33 | COc1cc(C2(c3cccc(-c4cncc(C#N)c4)c3)N=C(N)c3c(F)cccc32)ccn1 (stereo not shown) [Example 28, 5-(3-(3-Amino-4-fluoro-1-(2-methoxypyridin-4-yl)-1H-isoindol-1-yl)phenyl)nicotinonitrile acetate]

same assay, conditions: stated in the text of the example; read-out: IC50 in the FRET assay

pIC50 | Structure (SMILES)
4.57 | Cc1cc(C2(c3cc(-c4cncc(S(C)(=O)=O)c4)ccc3F)N=C(N)c3c(F)cccc32)ccn1 (stereo not shown) [Example 2, 4-Fluoro-1-(2-fluoro-5-(5-(methylsulfonyl)pyridin-3-yl)phenyl)-1-(2-methylpyridin-4-yl)-1H-isoindol-3-amine]
